Assay results from patent publication US11633413B2, “Composition for preventing or improving menopausal symptom comprising novel ginsenoside” (AMOREPACIFIC CORPORATION, priority 2019, dated 2023).
“Also recorded” adds a separate entry of the source.

Columns and labels:
Type in all cases: cell-based
[1] = tested on: MCF-7 breast cancer cells; assay: growth of MCF-7 breast cancer cells (cell counting); details: 10 μg/mL for 48 hours; number of cells counted; FIG. 15
[2] = molecular target: T1, estrogen receptor ERα (Homo sapiens, UniProt P03372); assay: human ERα reporter assay (ERE-luc, Indigo Bioscience #IB00421-48P); details: for activity of ERα: Test Example 3, same manner as Test Example 1, FIG. 16; for increase of the activity of the estrogen receptor ERα: Test Example 1, 10 μg/mL for 24 hours, FIG. 11, FIG. 14
T1 sequence (P03372 1-595): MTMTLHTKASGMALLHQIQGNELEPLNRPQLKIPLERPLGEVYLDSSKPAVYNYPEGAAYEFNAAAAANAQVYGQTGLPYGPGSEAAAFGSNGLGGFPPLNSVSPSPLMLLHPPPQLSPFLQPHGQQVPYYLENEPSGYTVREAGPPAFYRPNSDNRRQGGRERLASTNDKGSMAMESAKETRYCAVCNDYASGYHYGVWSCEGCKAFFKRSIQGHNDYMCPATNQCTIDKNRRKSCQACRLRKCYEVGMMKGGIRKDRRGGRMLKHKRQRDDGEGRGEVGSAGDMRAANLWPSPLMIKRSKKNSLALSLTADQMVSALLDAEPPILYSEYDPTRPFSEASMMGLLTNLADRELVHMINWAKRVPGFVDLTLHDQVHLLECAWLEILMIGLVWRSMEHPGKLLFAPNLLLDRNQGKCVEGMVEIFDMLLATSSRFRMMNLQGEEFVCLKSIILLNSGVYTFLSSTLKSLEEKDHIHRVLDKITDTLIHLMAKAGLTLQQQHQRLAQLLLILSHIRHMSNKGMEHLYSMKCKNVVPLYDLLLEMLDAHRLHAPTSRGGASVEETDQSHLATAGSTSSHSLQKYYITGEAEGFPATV
Experimental: (§1) After treating each of the novel ginsenoside GS #10 according to an exemplary embodiment of the present disclosure and other ginsenosides GS #01 to GS #06 isolated from the ginseng seed extract with a human ERα/β reporter assay panel (#IB00421-48P; Indigo Bioscience) at a concentration of 10 μg/mL for 24 hours, the increase of the activity of the estrogen receptors ERα and ERβ was analyzed. The #IB00421-48P kit comprises cells in which ERα and ERβ are overexpressed, respectively, and comprises the ERE-luc reporter gene. If the activity of the ER is increased by treating with the example or a comparative example, ERα and ERβ bind to ERE, thereby inducing the expression of luciferase. Therefore, the activity of ERα and ERβ can be measured by measuring the light intensity of the cells. As the comparative example, a methanol extract of ginseng seed (seeds of Panax ginseng) used for the isolation of the ginsenosides in Example 1 was used.
(§2) It is reported that, although the increased activity of the estrogen receptors ERα and ERβ can lead to alleviation of menopausal symptoms, ERs are overexpressed in more than 70% of breast cancer cells, mainly due to increased ERα (ESR1) (see Deroo B J et al., J Clin Invest 116:561 (2006)).
(§3) The effect of preventing or improving menopausal symptoms of the novel ginsenoside […] according to an exemplary embodiment of the present disclosure was compared with that of ginsenosides Rg1, Rg3 and Rb1 (purchased from Sigma), which are red ginseng marker compounds, as comparative examples. Ginsenoside Rg3 has the following chemical structure. The experiment was performed in the same manner as in Test Example 1.

[3] = molecular target: estrogen receptor ERβ (Homo sapiens, UniProt Q92731); assay: human ERβ reporter assay (ERE-luc, Indigo Bioscience #IB00421-48P); details: for activity of ERβ: same manner as Test Example 1
estrogen receptor ERβ, sequence (Q92731 whole entry): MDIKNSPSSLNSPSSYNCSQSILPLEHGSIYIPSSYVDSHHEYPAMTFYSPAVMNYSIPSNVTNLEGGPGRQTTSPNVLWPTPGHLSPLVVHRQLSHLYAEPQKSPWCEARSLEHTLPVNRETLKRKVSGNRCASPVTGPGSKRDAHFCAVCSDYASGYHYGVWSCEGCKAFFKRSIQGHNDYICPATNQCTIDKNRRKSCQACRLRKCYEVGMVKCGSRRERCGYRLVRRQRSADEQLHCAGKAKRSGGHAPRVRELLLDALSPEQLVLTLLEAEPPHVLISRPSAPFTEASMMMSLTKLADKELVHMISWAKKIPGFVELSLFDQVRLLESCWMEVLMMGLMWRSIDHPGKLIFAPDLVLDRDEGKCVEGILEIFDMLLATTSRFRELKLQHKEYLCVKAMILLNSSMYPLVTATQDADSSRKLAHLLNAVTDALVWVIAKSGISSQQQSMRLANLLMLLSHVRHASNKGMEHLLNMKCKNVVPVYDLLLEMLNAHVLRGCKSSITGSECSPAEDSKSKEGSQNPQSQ
Experimental: as §1, §2, §3

[4] = tested on: SH-SY5Y cells; assay: cytotoxicity, cell counting kit (CCK-8); details: 0.1, 1, 5, 10, 20 and 50 μM, FIG. 18
Experimental: Cell growth in the presence of the novel ginsenoside GS #10 according to an exemplary embodiment of the present disclosure was evaluated using a cell counting kit (CCK-8) in order to exclude the possibility that the ginsenoside may affect the effect of preventing or improving menopausal symptoms through cytotoxic activity. The experimental method is as follows.
10 μL of a CCK-8 reagent was added to SH-SY5Y cells (Dojindo, Md., USA) in a 96-well plate and left at 37° C. for 2 hours. Then, absorbance was measured at 450 nm. Cell viability was represented as the percentage (%) of the absolute optical density of each sample relative to an untreated sample. The concentration of the novel ginsenoside GS #10 according to an exemplary embodiment of the present disclosure in the medium in which the cells were cultured was 0.1, 1, 5, 10, 20 and 50 μM, respectively.

Compound | growth of MCF-7 breast cancer cells (side effect of promoting cancer cell growth) [1] | activity of ERα [2] | increase of the activity of the estrogen receptor ERα [2] | activity of ERβ ([3]; Test Example 3, FIG. 17) | further results
C[C@]12CC[C@@H]3c4ccc(O)cc4CC[C@H]3[C@@H]1CC[C@@H]2O [17β-estradiol, 17β-Estradiol, reference compound] | promoted the growth of the breast cancer cells | – | – | – | –
CC(C)=CCC[C@](C)(O[C@@H]1O[C@H](CO)[C@@H](O)[C@H](O)[C@H]1O)[C@H]1CC[C@]2(C)[C@@H]1[C@H](O)C[C@@H]1[C@@]3(C)CC[C@H](O)C(C)(C)[C@@H]3[C@@H](O[C@@H]3O[C@H](CO)[C@@H](O)[C@H](O)[C@H]3O)C[C@]12C [GS #01, ginsenoside Rg1] | – | activated the estrogen receptors to some extent | – | – | –
CC(C)=CCC[C@](C)(O[C@@H]1O[C@H](CO)[C@@H](O)[C@H](O)[C@H]1O)[C@H]1CC[C@]2(C)[C@@H]1[C@H](O)C[C@@H]1[C@@]3(C)CC[C@H](O)C(C)(C)[C@@H]3[C@@H](O[C@@H]3O[C@H](CO)[C@@H](O)[C@H](O)[C@H]3O[C@@H]3O[C@@H](C)[C@H](O)[C@@H](O)[C@H]3O)C[C@]12C [GS #03, ginsenoside Re] | – | – | slightly increased the activity of ERα | – | –
CC(C)=CCC[C@](C)(O[C@@H]1O[C@H](CO[C@@H]2O[C@H](CO)[C@@H](O)[C@H](O)[C@H]2O)[C@@H](O)[C@H](O)[C@H]1O)[C@H]1CC[C@]2(C)[C@@H]1[C@H](O)C[C@@H]1[C@@]3(C)CC[C@H](O[C@@H]4O[C@H](CO)[C@@H](O)[C@H](O)[C@H]4O[C@@H]4O[C@H](CO)[C@@H](O)[C@H](O)[C@H]4O)C(C)(C)[C@@H]3CC[C@]12C [GS #05, ginsenoside Rb1] | – | activated the estrogen receptors to some extent | slightly increased the activity of ERα | – | –
CC1(C)C(=O)CC[C@@]2(C)C1[C@@H](O[C@H]1OC(CO)[C@H](O)C(O)C1O[C@H]1OC(CO)[C@H](O)C(O)C1O)C[C@]1(C)C2C[C@@H](O)C2C([C@]3(C)CC[C@H](C(C)(C)O)O3)CC[C@]21C (stereo partly drawn) [GS #10, (20S,24R)-6-O-β-D-glucopyranosyl(1→2)-β-D-glucopyranoside-dammar-3-one-20,24-epoxy-6a,12b,25-triol] | did not show such a side effect | not higher than Rg1 and Rb1 | slightly increased the activity of ERα; also recorded: had an effect of increasing the activity | 136% | increase of the activity of the estrogen receptor ERβ ([3]; Test Example 1, 10 μg/mL for 24 hours, FIG. 12, FIG. 14): activated ERβ; also recorded: had an effect of increasing the activity; activity ratio of ERβ to ERα compared with red ginseng marker compounds ([3]; Test Example 3, FIG. 16 and FIG. 17): higher than the ginsenosides Rb1, Rg1 and Rg3; activity of ERβ as compared to the ginsenosides Rg1 and Rb1 ([3]; Test Example 3, FIG. 17): at least 3 times; cytotoxicity (cell viability) [4]: did not exhibit cytotoxicity up to 50 μM
CC(C)=CCC[C@](C)(O)[C@H]1CC[C@]2(C)[C@@H]1[C@H](O)C[C@@H]1[C@@]3(C)CC[C@H](O[C@@H]4O[C@H](CO)[C@@H](O)[C@H](O)[C@H]4O[C@@H]4O[C@H](CO)[C@@H](O)[C@H](O)[C@H]4O)C(C)(C)[C@@H]3CC[C@]12C [Rg3, Ginsenoside Rg3, reference compound] | – | activated the estrogen receptors to some extent | – | activated the estrogen receptors to some extent | –
